Legend:
[1] = target: T1, Serotonin transporter SERT (Homo sapiens, UniProt P31645); test: Radioligand displacement binding assay, [3H]paroxetine, SERT
T1 construct: host or cells: HEK-293

[2] = target: T2, Serotonin 5-HT2A (Homo sapiens, UniProt P28223); test: Radioligand displacement binding assay, [3H]ketanserin, 5-HT2A
T2 construct: host or cells: CHO-K1

[3] = target: GluN1-GluN2A NMDAR subtype (Homo sapiens, UniProt Q05586+Q12879); test: FLIPR/Ca2+ assay, NMDAR GluN1-GluN2A subtype in CHO cells; format: cell-based; conditions: CHO cells, 10 μM L-glutamate and 10 μM glycine; n.d. = 50% of inhibition could not be reached at the highest concentration used
Method in brief: (§1)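 Fluo-4-loaded CHO cells (with probenecid and 500 μM ketamine during loading) stimulated with 10 μM L-glutamate plus 10 μM glycine added together with compounds, in HEPES buffer pH 7.3 with 2 mM CaCl2.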

[4] = target: GluN1-GluN2C NMDAR subtype (Homo sapiens, UniProt Q05586+Q14957); test: FLIPR/Ca2+ assay, NMDAR GluN1-GluN2C subtype in CHO cells; format: cell-based; conditions: CHO cells, 10 μM L-glutamate and 10 μM glycine; n.d. = 50% of inhibition could not be reached at the highest concentration used
Method in brief: as §1

[5] = target: T3, Serotonin 5-HT5A (Homo sapiens, UniProt P47898); test: Radioligand displacement binding assay, [3H]LSD, 5-HT5A
T3 construct: host or cells: CHO-K1
T3 sequence (P47898 whole entry): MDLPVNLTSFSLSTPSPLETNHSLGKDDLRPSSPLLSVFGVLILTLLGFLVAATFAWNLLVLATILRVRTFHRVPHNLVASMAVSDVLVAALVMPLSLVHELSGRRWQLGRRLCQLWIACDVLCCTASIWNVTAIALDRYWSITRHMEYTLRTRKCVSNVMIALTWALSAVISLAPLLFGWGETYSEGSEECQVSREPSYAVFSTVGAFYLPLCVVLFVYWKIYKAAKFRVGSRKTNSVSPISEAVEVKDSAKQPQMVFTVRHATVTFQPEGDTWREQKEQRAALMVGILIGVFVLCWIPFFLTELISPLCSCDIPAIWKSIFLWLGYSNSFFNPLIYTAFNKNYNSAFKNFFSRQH

[6] = target: T4, Norepinephrine transporter NET (Homo sapiens, UniProt P23975); test: Radioligand displacement binding assay, [125I]RTI-55, NET
T4 construct: host or cells: MDCK
T4 sequence (P23975 whole entry): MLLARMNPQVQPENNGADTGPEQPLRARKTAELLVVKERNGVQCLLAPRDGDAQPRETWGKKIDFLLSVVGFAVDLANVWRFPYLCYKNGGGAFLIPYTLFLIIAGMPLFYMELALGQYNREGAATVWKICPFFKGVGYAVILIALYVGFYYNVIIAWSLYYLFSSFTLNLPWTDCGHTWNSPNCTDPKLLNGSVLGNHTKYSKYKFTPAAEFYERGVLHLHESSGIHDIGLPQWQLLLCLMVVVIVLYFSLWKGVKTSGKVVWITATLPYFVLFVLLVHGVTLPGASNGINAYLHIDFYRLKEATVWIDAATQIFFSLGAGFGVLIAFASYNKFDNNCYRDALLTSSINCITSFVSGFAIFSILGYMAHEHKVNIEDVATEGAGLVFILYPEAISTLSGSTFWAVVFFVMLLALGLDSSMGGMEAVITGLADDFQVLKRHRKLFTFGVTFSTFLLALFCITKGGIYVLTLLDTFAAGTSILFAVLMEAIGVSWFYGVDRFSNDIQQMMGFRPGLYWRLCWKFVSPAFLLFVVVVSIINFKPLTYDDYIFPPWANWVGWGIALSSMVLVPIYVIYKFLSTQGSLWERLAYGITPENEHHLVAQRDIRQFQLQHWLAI

[7] = tested on: Glutamate, NMDA, Phencyclidine binding site; test: Radioligand displacement binding assay, [3H]TCP, NMDA; parameters: species or system Wistar rat
[8] = target: T5, GluN1-GluN2B NMDAR subtype (Homo sapiens, UniProt Q05586+Q13224); test: FLIPR/Ca2+ assay, NMDAR GluN1-GluN2B subtype in CHO cells; format: cell-based; conditions: CHO cells, 10 μM L-glutamate and 10 μM glycine; n.d. = 50% of inhibition could not be reached at the highest concentration used
T5 construct: host or cells: NR1-2B-CHO cells, constitutive expression
Method in brief: as §1

[9] = target: T6, Serotonin 5-HT7 (Homo sapiens, UniProt P34969); test: Radioligand displacement binding assay, [3H]LSD, 5-HT7
T6 construct: host or cells: CHO-K1
T6 sequence (P34969 whole entry): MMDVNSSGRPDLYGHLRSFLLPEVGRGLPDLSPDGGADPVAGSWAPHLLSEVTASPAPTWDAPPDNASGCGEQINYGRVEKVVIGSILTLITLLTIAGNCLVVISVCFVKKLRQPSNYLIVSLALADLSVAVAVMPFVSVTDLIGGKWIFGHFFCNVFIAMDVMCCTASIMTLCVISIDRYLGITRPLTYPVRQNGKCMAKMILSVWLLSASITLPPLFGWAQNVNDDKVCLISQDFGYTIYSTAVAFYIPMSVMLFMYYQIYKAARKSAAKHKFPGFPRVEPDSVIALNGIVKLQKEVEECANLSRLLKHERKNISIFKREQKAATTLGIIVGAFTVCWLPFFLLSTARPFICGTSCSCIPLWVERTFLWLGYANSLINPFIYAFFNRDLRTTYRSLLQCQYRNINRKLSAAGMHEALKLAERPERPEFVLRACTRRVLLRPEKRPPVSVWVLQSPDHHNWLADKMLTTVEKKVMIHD

[10] = target: T7, Serotonin 5-HT2C (Homo sapiens, UniProt P28335); test: Radioligand displacement binding assay, [3H]mesulergine, 5-HT2C
T7 construct: host or cells: CHO-K1
T7 sequence (P28335 33-458): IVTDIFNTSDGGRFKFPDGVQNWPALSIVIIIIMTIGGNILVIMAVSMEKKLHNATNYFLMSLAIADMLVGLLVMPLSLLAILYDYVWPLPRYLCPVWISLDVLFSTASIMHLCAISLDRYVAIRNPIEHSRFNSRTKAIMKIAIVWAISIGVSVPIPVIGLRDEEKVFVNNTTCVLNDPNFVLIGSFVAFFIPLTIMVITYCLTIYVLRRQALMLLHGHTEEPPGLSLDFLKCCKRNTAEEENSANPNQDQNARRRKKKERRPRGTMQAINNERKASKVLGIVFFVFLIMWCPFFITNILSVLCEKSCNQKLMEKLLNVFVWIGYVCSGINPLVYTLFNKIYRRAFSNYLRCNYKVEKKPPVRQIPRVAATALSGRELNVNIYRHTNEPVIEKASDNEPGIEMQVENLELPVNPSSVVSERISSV

[11] = target: T8, Sigma σ1 (Homo sapiens, UniProt Q99720); test: Radioligand displacement binding assay, [3H]pentazocine, sigma σ1
T8 construct: Sigma σ1; Source: Human Jurkat cells; host or cells: Jurkat
T8 sequence (Q99720 whole entry): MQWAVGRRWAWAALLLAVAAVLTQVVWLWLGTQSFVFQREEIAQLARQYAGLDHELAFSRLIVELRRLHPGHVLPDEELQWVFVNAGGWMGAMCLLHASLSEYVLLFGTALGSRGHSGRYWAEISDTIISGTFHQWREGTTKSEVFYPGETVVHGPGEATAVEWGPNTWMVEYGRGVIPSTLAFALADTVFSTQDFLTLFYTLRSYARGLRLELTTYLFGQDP

[12] = target: T9, Serotonin 5-HT1A (Homo sapiens, UniProt P08908); test: Radioligand displacement binding assay, [3H]8-OH-DPAT, 5-HT1A
T9 construct: host or cells: CHO-K1
T9 sequence (P08908 1-422): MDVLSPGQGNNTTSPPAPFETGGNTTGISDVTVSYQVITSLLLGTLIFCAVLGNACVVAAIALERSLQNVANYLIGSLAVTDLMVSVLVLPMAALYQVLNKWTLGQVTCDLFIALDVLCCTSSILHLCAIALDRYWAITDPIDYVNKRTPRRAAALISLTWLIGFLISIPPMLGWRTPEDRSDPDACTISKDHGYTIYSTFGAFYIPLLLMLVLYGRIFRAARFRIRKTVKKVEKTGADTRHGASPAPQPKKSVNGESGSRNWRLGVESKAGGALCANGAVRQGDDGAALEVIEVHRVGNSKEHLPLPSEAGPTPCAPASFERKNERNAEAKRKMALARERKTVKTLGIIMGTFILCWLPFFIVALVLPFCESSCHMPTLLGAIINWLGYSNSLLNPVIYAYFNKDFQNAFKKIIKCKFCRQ

[13] = target: GluN1-GluN2D NMDAR subtype (Homo sapiens, UniProt O15399+Q05586); test: FLIPR/Ca2+ assay, NMDAR GluN1-GluN2D subtype in CHO cells; format: cell-based; conditions: CHO cells, 10 μM L-glutamate and 10 μM glycine; n.d. = 50% of inhibition could not be reached at the highest concentration used
Chain of GluN1-GluN2D NMDAR subtype (O15399 28-1336, other chains not shown): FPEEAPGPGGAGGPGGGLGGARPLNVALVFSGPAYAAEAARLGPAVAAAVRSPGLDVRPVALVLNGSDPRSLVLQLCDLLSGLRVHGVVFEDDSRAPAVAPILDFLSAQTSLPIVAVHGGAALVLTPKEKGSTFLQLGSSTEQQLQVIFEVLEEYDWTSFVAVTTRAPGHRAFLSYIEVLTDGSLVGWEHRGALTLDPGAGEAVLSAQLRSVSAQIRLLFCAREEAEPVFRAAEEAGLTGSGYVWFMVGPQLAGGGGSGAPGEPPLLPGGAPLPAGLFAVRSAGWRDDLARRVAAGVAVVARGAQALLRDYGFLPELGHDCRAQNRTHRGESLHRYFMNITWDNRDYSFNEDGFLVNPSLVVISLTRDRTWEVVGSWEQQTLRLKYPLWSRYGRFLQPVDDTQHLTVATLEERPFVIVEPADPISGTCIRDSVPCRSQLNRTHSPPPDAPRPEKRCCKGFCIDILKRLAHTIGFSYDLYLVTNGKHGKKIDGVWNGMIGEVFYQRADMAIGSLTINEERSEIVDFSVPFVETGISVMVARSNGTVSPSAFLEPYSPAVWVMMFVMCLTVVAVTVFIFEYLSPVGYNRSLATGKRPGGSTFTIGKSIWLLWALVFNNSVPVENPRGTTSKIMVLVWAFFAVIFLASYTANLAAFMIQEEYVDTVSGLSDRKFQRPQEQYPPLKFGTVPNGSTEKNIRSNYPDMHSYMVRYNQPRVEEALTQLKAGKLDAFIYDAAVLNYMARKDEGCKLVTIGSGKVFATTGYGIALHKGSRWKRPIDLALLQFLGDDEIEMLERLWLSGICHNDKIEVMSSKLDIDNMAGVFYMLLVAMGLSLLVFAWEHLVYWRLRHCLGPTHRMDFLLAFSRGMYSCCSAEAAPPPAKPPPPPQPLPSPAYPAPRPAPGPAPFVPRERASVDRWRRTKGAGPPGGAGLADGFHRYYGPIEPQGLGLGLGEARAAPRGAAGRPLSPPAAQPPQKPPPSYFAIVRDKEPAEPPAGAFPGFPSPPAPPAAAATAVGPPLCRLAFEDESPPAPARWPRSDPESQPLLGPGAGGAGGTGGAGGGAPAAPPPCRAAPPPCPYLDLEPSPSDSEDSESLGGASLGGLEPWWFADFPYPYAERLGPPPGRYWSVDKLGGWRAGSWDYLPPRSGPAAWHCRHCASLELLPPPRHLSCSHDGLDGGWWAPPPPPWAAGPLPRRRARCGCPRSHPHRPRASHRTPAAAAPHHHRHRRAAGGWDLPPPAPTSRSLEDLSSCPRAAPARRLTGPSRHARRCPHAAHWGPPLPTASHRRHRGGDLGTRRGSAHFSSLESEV
Method in brief: as §1

[14] = target: T10, μ opioid receptor (MOP) (Homo sapiens, UniProt P35372); test: biochemical; format: binding; conditions: for inhibition at 0.3 µM / inhibition at 3 µM: read-out: % inhibition of binding, MOP
T10 construct: host or cells: CHO-K1
T10 sequence (P35372 whole entry): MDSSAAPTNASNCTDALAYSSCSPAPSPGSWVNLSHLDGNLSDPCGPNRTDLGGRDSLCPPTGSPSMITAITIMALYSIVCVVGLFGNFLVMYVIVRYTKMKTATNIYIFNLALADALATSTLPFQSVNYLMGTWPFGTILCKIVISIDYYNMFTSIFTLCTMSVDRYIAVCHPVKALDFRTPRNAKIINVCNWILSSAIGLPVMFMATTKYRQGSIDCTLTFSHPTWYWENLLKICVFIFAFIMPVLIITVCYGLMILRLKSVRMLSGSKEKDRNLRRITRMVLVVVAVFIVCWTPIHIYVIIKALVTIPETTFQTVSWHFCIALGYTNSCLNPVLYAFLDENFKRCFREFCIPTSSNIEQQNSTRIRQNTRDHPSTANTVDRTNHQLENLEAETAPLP

[15] = target: T11, Muscarinic M5 (Homo sapiens, UniProt P08912); test: Radioligand displacement binding assay, [3H]N-methylscopolamine, M5
T11 construct: host or cells: CHO-K1
T11 sequence (P08912 1-532): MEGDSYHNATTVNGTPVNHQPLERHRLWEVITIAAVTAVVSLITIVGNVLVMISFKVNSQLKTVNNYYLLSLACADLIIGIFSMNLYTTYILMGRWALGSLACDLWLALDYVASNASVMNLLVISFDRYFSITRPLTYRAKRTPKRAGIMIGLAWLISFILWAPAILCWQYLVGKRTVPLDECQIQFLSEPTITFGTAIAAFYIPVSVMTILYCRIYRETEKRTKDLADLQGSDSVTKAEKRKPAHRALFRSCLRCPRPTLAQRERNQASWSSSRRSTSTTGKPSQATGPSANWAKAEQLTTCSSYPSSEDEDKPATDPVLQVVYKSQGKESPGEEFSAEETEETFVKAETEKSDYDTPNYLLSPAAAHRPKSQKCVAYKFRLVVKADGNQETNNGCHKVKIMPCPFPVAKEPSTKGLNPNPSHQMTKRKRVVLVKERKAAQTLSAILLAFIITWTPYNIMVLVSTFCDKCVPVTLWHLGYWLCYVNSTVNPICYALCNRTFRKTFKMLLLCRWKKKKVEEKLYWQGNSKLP

[16] = target: T12, Histamine H1 (Homo sapiens, UniProt P35367); test: Radioligand displacement binding assay, [3H]pyrilamine, H1
T12 construct: host or cells: CHO-K1
T12 sequence (P35367 whole entry): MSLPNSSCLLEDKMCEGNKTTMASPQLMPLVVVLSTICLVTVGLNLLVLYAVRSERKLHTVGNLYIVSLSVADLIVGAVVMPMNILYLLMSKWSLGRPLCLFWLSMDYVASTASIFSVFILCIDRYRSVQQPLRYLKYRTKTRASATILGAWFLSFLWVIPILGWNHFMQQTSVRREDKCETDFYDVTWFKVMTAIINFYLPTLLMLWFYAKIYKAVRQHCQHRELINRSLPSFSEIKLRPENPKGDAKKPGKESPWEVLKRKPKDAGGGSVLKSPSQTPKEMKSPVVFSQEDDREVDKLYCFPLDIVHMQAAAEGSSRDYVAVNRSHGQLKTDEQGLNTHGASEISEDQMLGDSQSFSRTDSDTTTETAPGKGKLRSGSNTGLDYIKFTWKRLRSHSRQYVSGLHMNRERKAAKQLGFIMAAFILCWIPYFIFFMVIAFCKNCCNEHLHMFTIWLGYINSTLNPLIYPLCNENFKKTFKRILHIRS

T2 sequence (P28223 whole entry): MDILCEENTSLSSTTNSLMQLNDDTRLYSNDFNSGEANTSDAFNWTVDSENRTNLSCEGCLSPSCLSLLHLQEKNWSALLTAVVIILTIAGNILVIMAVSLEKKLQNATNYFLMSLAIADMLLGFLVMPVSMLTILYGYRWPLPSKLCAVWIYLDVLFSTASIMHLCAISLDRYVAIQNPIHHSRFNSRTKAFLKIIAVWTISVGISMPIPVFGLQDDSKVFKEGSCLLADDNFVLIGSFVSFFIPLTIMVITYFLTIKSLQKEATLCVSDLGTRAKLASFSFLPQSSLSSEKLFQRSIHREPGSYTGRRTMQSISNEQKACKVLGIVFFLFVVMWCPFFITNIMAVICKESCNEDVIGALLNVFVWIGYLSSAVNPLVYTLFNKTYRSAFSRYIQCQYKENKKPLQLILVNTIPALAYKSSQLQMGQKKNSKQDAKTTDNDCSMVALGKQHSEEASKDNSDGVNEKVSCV
T1 sequence (P31645 whole entry): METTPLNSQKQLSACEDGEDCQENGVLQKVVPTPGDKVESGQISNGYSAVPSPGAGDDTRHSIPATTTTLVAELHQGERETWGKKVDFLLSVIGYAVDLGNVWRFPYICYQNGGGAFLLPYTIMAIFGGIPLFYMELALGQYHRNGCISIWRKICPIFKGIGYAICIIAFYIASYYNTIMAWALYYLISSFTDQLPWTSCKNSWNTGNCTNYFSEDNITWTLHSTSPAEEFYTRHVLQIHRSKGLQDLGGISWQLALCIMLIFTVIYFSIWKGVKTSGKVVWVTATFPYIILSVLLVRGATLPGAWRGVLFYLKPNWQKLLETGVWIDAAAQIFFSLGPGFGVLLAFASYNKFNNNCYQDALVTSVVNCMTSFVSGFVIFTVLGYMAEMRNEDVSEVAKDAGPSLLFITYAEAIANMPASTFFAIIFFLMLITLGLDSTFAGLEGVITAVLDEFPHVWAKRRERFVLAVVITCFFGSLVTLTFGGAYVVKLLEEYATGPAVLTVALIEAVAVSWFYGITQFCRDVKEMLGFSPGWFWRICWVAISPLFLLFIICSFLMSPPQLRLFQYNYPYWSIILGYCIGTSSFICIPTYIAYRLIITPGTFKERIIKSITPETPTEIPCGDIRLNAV

Row | SMILES | inhibition at 1 µM [1] [%] | inhibition at 10 µM ([1]; 10 μM) [%] | inhibition at 0.3 µM [2] [%] | inhibition at 3 µM [2] [%] | pIC50 (mean ± SEM) GluN1-GluN2A [3] | pIC50 (mean ± SEM) GluN1-GluN2C [4] | inhibition at 1 µM [5] [%] | inhibition at 10 µM [5] [%] | inhibition at 1 µM [6] [%] | inhibition at 10 µM [6] [%] | % inhibition of binding, NMDA ([7]; 1 μM) [%] | pIC50 (mean ± SEM) GluN1-GluN2B [8] | inhibition at 1 µM [9] [%] | inhibition at 10 µM [9] [%] | inhibition at 0.3 µM [10] [%] | inhibition at 3 µM [10] [%] | inhibition at 0.3 µM [11] [%] | inhibition at 3 µM [11] [%] | inhibition at 0.3 µM [12] [%] | inhibition at 3 µM [12] [%] | also measured
1 | CC[C@H](O)C(C[C@H](C)N)(c1ccccc1)c1ccccc1 [(3S,6S)-DNML, (3S,6S)-6-amino-4,4-diphenylheptan-3-ol] | 35 | 82 | 12 | 10 | 4.9 ± 0.081 | 4.7 ± 0.056 | -7 | -12 | -5 | 3 | 9 | 4.4 ± 0.13 | 5 | 4 | 1 | 19 | 46 | 71 | 24 | 15 | % inhibition of binding, SERT ([1]; 10 μM): displaced; % inhibition of binding, NMDA ([7]; 10 μM): 36%; pIC50 (mean ± SEM) GluN1-GluN2D [13]: 4.7 ± 0.079; inhibition at 0.3 µM [14]: 38%; inhibition at 3 µM [14]: 84%; inhibition at 1 µM [15]: 1%; inhibition at 10 µM [15]: 9%; inhibition at 10 µM [16]: 5%; inhibition at 30 µM [16]: 24%
2 | CC[C@H](O)C(C[C@H](C)NC)(c1ccccc1)c1ccccc1 [(3S,6S)-NML, (3S,6S)-6-(methylamino)-4,4-diphenylheptan-3-ol] | 2 | 25 | -10 | -11 | 4.6 ± 0.062 | 4.7 ± 0.042 | 1 | 10 | -12 | 12 | 9 | 4.7 ± 0.080 | 12 | 23 | 5 | 28 | 46 | 77 | -4 | 1 | displacement at the Sigma-1 (σ1) receptor, in words ([11]; concentration not given): high displacement percentages; pIC50 (mean ± SEM) GluN1-GluN2D [13]: 4.6 ± 0.065; inhibition at 0.3 µM [14]: 65%; inhibition at 3 µM [14]: 95%; displacement at the MOP, in words ([14]; concentration not given): high displacement percentages; inhibition at 1 µM [15]: 2%; inhibition at 10 µM [15]: 15%; inhibition at 10 µM [16]: 33%; inhibition at 30 µM [16]: 65%; displacement at the histamine H1 receptor, in words ([16]; concentration not given): significant displacement percentages
